Experimental data as given in patent publication US9573913B2, “Cathepsin cysteine protease inhibitors” (Merck Sharp & Dohme Corp., priority 2013, dated 2017).

Assays:
human cathepsin K = human cathepsin K (UniProt P43236); test: Cathepsin K Assay (hrbCat K); format: biochemical; conditions: Z-Leu-Arg-AMC substrate, pH 5.5, 15 min preincubation; read-out: hrbCat K (IP (nM))
Summary of the method: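 Human cathepsin K (0.4 nM) was preincubated 15 min at room temperature with compound in 50 mM MES pH 5.5, 2.5 mM EDTA, 2.5 mM DTT and 10% DMSO. Inhibition was fitted to a dose-response model.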

human cathepsin F = target: T1, human cathepsin F (Homo sapiens, UniProt Q9UBX1); test: Cathepsin F assay (hCat F); format: biochemical; conditions: Z-Phe-Arg-AMC substrate, pH 5.5, 15 min preincubation; read-out: hCat F (IP (nM))
T1 sequence (Q9UBX1 271-484): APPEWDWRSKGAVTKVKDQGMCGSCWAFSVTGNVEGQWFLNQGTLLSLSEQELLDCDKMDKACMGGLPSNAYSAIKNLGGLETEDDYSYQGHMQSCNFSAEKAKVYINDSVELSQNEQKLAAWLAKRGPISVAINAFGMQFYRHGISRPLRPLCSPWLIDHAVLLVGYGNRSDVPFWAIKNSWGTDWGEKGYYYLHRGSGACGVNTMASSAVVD
Summary of the method: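 Enzyme (10 nM) was preincubated 15 min at room temperature with compounds (1/3 DMSO dilution series, 500–0.025 μM) in 50 mM MES pH 5.5, 2.5 mM EDTA, 2.5 mM DTT, 10% DMSO. Z-Phe-Arg-AMC (8 μM) was added and AMC fluorescence (Ex 360/Em 460 nm) followed for 20 min. % inhibition was fitted to dose-response curves.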

Structure (SMILES)	IC50 (human cathepsin K)	IC50 (human cathepsin F)
Cc1nc([C@@H]2CC[C@H](F)C[C@H]2C(=O)N[C@H](C#N)C(C)C)c(-c2ccc(N3CCS(=O)(=O)CC3)cc2)s1 [Example 210, (1R,2R,5S)-N-((S)-1-cyano-2-methylpropyl)-2-(5-(4-(1,1-dioxidothiomorpho-lino)phenyl)-2-methylthiazol-4-yl)-5-fluorocyclohexane-carboxamide]	11.4 nM	9900 nM
Cc1cnc(-c2nc([C@@H]3CCCC[C@H]3C(=O)NC3(C#N)CC3)c(-c3ccc(N4CCS(=O)(=O)CC4)cc3)s2)nc1 [Example 82, (1R,2R)-N-(1-cyanocyclopropyl)-2-(5-(4-(1,1-dioxidothiomorpho-lino)phenyl)-2-(5-methylpyrimidin-2-yl)thiazol-4-yl)cyclohexane-carboxamide]	46.4 nM	≥ 10000 nM
N#CC1(NC(=O)[C@@H]2CCCC[C@H]2c2nc(-c3cccc(C4CCOCC4)c3)sc2-c2ccc(N3CCS(=O)(=O)CC3)cc2)CC1 [Example 110, (1R,2R)-N-(1-cyanocyclopropyl)-2-(5-(4-(1,1-dioxidothiomorpho-lino)phenyl)-2-(3-(tetrahydro-2H-pyran-4-yl)phenyl)thiazol-4-yl)cyclohexane-carboxamide]	1.7 nM	3330 nM
N#Cc1ccc(-c2nc([C@@H]3CCCC[C@H]3C(=O)NC3(C#N)CC3)c(-c3ccc(N4CCS(=O)(=O)CC4)cc3)s2)cc1 [Example 84, (1R,2R)-N-(1-cyanocyclopropyl)-2-(2-(4-cyanophenyl)-5-(4-(1,1-dioxidothiomorpho-lino)phenyl)thiazol-4-yl)cyclohexane-carboxamide]	0.7 nM	1410 nM
N#CC1(NC(=O)[C@@H]2CC(F)(F)CC[C@H]2c2nc(-c3ccc(F)cc3)oc2-c2ccc(N3CCS(=O)(=O)CC3)cc2)CC1 [Example 165, (1R,2R)-N-(1-cyanocyclopropyl)-2-(5-(4-(1,1-dioxidothiomorpho-lino)phenyl)-2-(4-fluorophenyl)oxazol-4-yl)-5,5-difluorocyclohexane-carboxamide]	0.6 nM	61 nM
N#CC1(NC(=O)[C@@H]2CCCC[C@H]2c2nc(N3CCO[C@H](C(F)(F)F)C3)sc2-c2ccc(N3CCS(=O)(=O)CC3)cc2)CC1 [Example 145, (1R,2R)-N-(1-cyanocyclopropyl)-2-(5-(4-(1,1-dioxidothiomorpho-lino)phenyl)-2-((S)-2-(trifluoromethyl)morpholino)thiazol-4-yl)cyclohexane-carboxamide]	4.3 nM	7050 nM
Cc1nc([C@@H]2CCCC[C@H]2C(=O)NCC#N)c(-c2ccc(C(=O)N3CCOCC3)cc2)s1 [Example 12, (1R,2R)-N-(cyanomethyl)-2-(2-methyl-5-(4-(morpholine-4-carbonyl)phenyl)thiazol-4-yl)cyclohexanecarboxamide]	17 nM	5170 nM
N#CC1(NC(=O)[C@@H]2CC3CC3C[C@H]2c2nc(-c3cncc(F)c3)sc2-c2ccc(N3CCS(=O)(=O)CC3)cc2)CC1 (single isomer, unassigned) [Compound 4, (1R or 1S,3R,4R,6S or 6R)-N-(1-Cyanocyclopropyl)-4-(5-(4-(1,1-dioxidothiomorpholino)phenyl)-2-(5-fluoropyridin-3-yl)thiazol-4-yl)bicyclo[4.1.0]heptane-3-carboxamide]	0.9 nM	439 nM
N#CC1(NC(=O)[C@@H]2CCCC[C@H]2c2nc(-c3c(F)cccc3F)sc2-c2ccc(N3CCS(=O)(=O)CC3)cc2)CC1 [Example 94, (1R,2R)-N-(1-cyanocyclopropyl)-2-(2-(2,6-difluorophenyl)-5-(4-(1,1-dioxidothiomorpho-lino)phenyl)thiazol-4-yl)cyclohexane-carboxamide]	5.5 nM	≥ 10000 nM
Cc1nc([C@@H]2CC[C@H](F)C[C@H]2C(=O)N[C@@H](C)C#N)c(-c2ccc(N3CCOCC3)cc2)s1 [Example 230, (1R,2R,5S)-N-((S)-1-cyanoethyl)-5-fluoro-2-(2-methyl-5-(4-morpholinophenyl)thiazol-4-yl)cyclohexane-carboxamide]	45.5 nM	3330 nM
COc1ccc(-c2nc([C@@H]3CCCC[C@H]3C(=O)NC3(C#N)CC3)c(-c3ccc(N4CCS(=O)(=O)CC4)cc3)s2)cc1 [Example 51, (1R,2R)-N-(1-cyanocyclopropyl)-2-(5-(4-(1,1-dioxidothiomorpho-lino)phenyl)-2-(4-methoxyphenyl)thi-azol-4-yl)cyclohexane-carboxamide]	1.8 nM	1110 nM
Cn1cc(-c2nc([C@@H]3CCCC[C@H]3C(=O)NC3(C#N)CC3)c(-c3ccc(N4CCS(=O)(=O)CC4)cc3)s2)ccc1=O [Example 53, (1R,2R)-N-(1-cyanocyclopropyl)-2-(5-(4-(1,1-dioxidothiomorpho-lino)phenyl)-2-(1-methyl-6-oxo-1,6-dihydropyridin-3-yl)thiazol-4-yl)cyclohexane-carboxamide]	3.8 nM	2770 nM
CCC(C#N)NC(=O)[C@@H]1CCCC[C@H]1c1nc(-c2ccc(F)cn2)sc1-c1ccc(N2CCS(=O)(=O)CC2)cc1 (single isomer, unassigned) [Example 192, (1R,2R)-N-((R or S)-1-cyanopropyl)-2-(5-(4-(1,1-dioxidothiomorpho-lino)phenyl)-2-(5-fluoropyridin-2-yl)thiazol-4-yl)cyclohexane-carboxamide]	0.4 nM	103 nM
N#CC1(NC(=O)[C@@H]2CCCC[C@H]2c2nc(-c3cncc(Cl)c3)sc2-c2ccc(N3CCS(=O)(=O)CC3)cc2)CC1 [Example 48, (1R,2R)-2-(2-(5-chloropyridin-3-yl)-5-(4-(1,1-dioxidothiomorpho-lino)phenyl)thiazol-4-yl)-N-(1-cyanocyclopropyl) cyclohexanecarbox-amide]	0.8 nM	650 nM
Cc1nc([C@@H]2CC[C@H](F)C[C@H]2C(=O)N[C@@H](C)C#N)c(-c2ccc(N3CCS(=O)(=O)CC3)cc2)s1 [Example 206, (1R,2R,5S)-N-((S)-1-cyanoethyl)-2-(5-(4-(1,1-dioxidothiomorpho-lino)phenyl)-2-methylthiazol-4-yl)-5-fluorocyclohexane-carboxamide]	5 nM	9010 nM
N#CC1(NC(=O)[C@@H]2CC3CC3C[C@H]2c2nc(-c3cncc(Cl)c3)sc2-c2ccc(N3CCS(=O)(=O)CC3)cc2)CC1 (single isomer, unassigned) [Example 113]	0.8 nM	482 nM
Cc1cc(C#N)ccc1-c1nc([C@@H]2CCCC[C@H]2C(=O)NC2(C#N)CC2)c(-c2ccc(N3CCS(=O)(=O)CC3)cc2)s1 [Example 95, (1R,2R)-2-(2-(4-cyano-2-methylphenyl)-5-(4-(1,1-dioxidothiomorpho-lino)phenyl)thiazol-4-yl)-N-(1-cyanocyclopropyl) cyclohexanecarbox-amide]	3.6 nM	1120 nM
N#CC1(NC(=O)[C@@H]2CCCC[C@H]2c2nc(-c3cc(F)cc(F)c3)sc2-c2ccc(N3CCS(=O)(=O)CC3)cc2)CC1 [Example 57, (1R,2R)-N-(1-cyanocyclopropyl)-2-(2-(3,5-difluorophenyl)-5-(4-(1,1-dioxidothiomorpho-lino)phenyl)thiazol-4-yl)cyclohexane-carboxamide]	1.5 nM	650 nM
CC(C)(C)c1nc([C@@H]2CCC(F)(F)C[C@H]2C(=O)NC2(C#N)CC2)c(-c2ccc(N3CCS(=O)(=O)CC3)cc2)o1 [Example 166, (1R,2R)-2-(2-(tert-butyl)-5-(4-(1,1-dioxidothiomorpho-lino)phenyl)oxazol-4-yl)-N-(1-cyanocyclopropyl)-5,5-difluorocyclohexane-carboxamide]	0.7 nM	356 nM
N#CC(NC(=O)[C@@H]1CCCC[C@H]1c1nc(-c2ccc(F)cn2)sc1-c1ccc(N2CCS(=O)(=O)CC2)cc1)C1CCOCC1 (single isomer, unassigned) [Example 185, (1R,2R)-N-((R or S)-cyano(tetrahydro-2H-pyran-4-yl)methyl)-2-(5-(4-(1,1-dioxidothiomorpho-lino)phenyl)-2-(5-fluoropyridin-2-yl)thiazol-4-yl)cyclohexane-carboxamide]	1.3 nM	695 nM
CS(=O)(=O)c1ccc(-c2sc(-c3cccnc3)nc2[C@@H]2CCCC[C@H]2C(=O)NC2(C#N)CC2)cc1 [Example 131, (1R,2R)-N-(1-cyanocyclopropyl)-2-(5-(4-(methylsulfonyl)phenyl)-2-(pyridin-3-yl)thiazol-4-yl)cyclohexane-carboxamide]	39.7 nM	1790 nM
N#CC1(NC(=O)[C@@H]2CCCC[C@H]2c2nc(N3CCC(F)(F)C3)sc2-c2ccc(N3CCS(=O)(=O)CC3)cc2)CC1 [Example 153, (1R,2R)-N-(1-cyanocyclopropyl)-2-(2-(3,3-difluoropyrrolidin-1-yl)-5-(4-(1,1-dioxidothiomorpho-lino)phenyl)thiazol-4-yl)cyclohexane-carboxamide]	3.1 nM	1000 nM
C[C@@H](C#N)NC(=O)[C@@H]1C[C@@H](F)CC[C@H]1c1nc(C(C)(C)C)oc1-c1ccc(N2CCS(=N)(=O)CC2)cc1 [Example 171, (1R,2R,5S)-2-(2-(tert-butyl)-5-(4-(1-imino-1-oxidothiomorpholino)phenyl)oxazol-4-yl)-N-((S)-1-cyanoethyl)-5-fluorocyclohexane-carboxamide]	4.8 nM	7420 nM
